Legend:
Type in all cases: in vivo
[1] = tested on: lambsquarters (Chenopodium album); assay: Test B postemergence; details: Rate 125 g/ha, scale 0 to 100, 0 no effect, 100 complete control
Method in brief: (§1)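 Greenhouse test: chemicals are formulated in a surfactant-containing non-phytotoxic solvent and applied either preemergence to planted seeds or postemergence to plants 2 to 18 cm tall. Response is rated visually versus controls after 13 to 15 days, 0 meaning no effect and 100 complete control.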

[2] = tested on: Surinam grass (Brachiaria decumbens); assay: Test B postemergence
Method in brief: as §1

[3] = tested on: velvetleaf (Abutilon theophrasti); assay: Test B postemergence; details: Rate 125 g/ha, scale 0 to 100, 0 no effect, 100 complete control
Method in brief: as §1

[4] = tested on: barnyardgrass (Echinochloa crus-galli); assay: Test B postemergence
Method in brief: as §1

[5] = tested on: corn (Zea mays); assay: Test B postemergence
Method in brief: as §1

[6] = tested on: morning glory (Ipomoea hederacea); assay: Test B postemergence; details: Rate 125 g/ha, scale 0 to 100, 0 no effect, 100 complete control
Method in brief: as §1

[7] = tested on: lambsquarters (Chenopodium album); assay: Test C preemergence; details: for Plant response rating (0 to 100), Lambsquarters: Rate 500 g/ha, visual evaluation after 12 to 14 days
Method in brief: (§2)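 Plants held in greenhouse for 12–14 days post-application are scored by eye against controls on a 0–100 control scale. Application timing: preemergence on sown seed, or postemergence on 2–18 cm plants.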

[8] = tested on: crabgrass (Digitaria sanguinalis); assay: Test C preemergence; details: for Plant response rating (0 to 100), Crabgrass: Rate 500 g/ha, visual evaluation after 12 to 14 days
Method in brief: as §2

[9] = tested on: Surinam grass (Brachiaria decumbens); assay: Test C preemergence; details: for Plant response rating (0 to 100), Surinam grass: Rate 500 g/ha, visual evaluation after 12 to 14 days
Method in brief: as §2

[10] = tested on: Nightshade; assay: Test C preemergence
[11] = tested on: velvetleaf (Abutilon theophrasti); assay: Test C preemergence; details: for Plant response rating (0 to 100), Velvetleaf: Rate 500 g/ha, visual evaluation after 12 to 14 days
Method in brief: as §2

[12] = tested on: johnsongrass (Sorghum halepense); assay: Test C preemergence; details: for Plant response rating (0 to 100), Johnsongrass: Rate 500 g/ha, visual evaluation after 12 to 14 days
Method in brief: as §2

[13] = tested on: corn (Zea mays); assay: Test C preemergence; details: for Plant response rating (0 to 100), Corn: Rate 500 g/ha, visual evaluation after 12 to 14 days
Method in brief: as §2

[14] = tested on: kochia (Kochia scoparia); assay: Test C preemergence; details: for Plant response rating (0 to 100), Kochia: Rate 500 g/ha, visual evaluation after 12 to 14 days
Method in brief: as §2

[15] = tested on: morningglory (Ipomoea hederacea); assay: Test C preemergence
Method in brief: as §2

[16] = tested on: cocklebur (Xanthium strumarium); assay: Test C preemergence; details: for Plant response rating (0 to 100), Cocklebur: Rate 500 g/ha, visual evaluation after 12 to 14 days
Method in brief: as §2

[17] = tested on: common ragweed (Ambrosia elatior); assay: Test C preemergence; details: for Plant response rating (0 to 100), Ragweed, Common: Rate 500 g/ha, visual evaluation after 12 to 14 days
Method in brief: as §2

[18] = tested on: soybean (Glycine max); assay: Test C preemergence; details: for Plant response rating (0 to 100), Soybean: Rate 500 g/ha, visual evaluation after 12 to 14 days
Method in brief: as §2

[19] = tested on: goosegrass (Eleusine indica); assay: Test C preemergence; details: for Plant response rating (0 to 100), Goosegrass: Rate 500 g/ha, visual evaluation after 12 to 14 days
Method in brief: as §2

[20] = tested on: woolly cupgrass (Eriochloa villosa); assay: Test C preemergence; details: for Plant response rating (0 to 100), Cupgrass, Woolly: Rate 500 g/ha, visual evaluation after 12 to 14 days
Method in brief: as §2

[21] = Rate 125 g/ha, scale 0 to 100, 0 no effect, 100 complete control
[22] = Rate 500 g/ha, scale 0 to 100, 0 is no effect, 100 is complete control, 13 to 15 days
[23] = preemergence, Rate 62 g/ha, scale 0 to 100
[24] = preemergence, Rate 250 g/ha, scale 0 to 100, 0 no effect, 100 complete control
[25] = Rate 250 g/ha, scale 0 to 100, 0 no effect, 100 complete control

## CCOc1cccc(N2CCC(n3ccc(C(C)(C)C)n3)C2=O)c1 (centres unmarked) [Compound 130]
[1]
  Plant response rating, Lambsquarters: 90
[2]; [21]
  Plant response rating, Surinam grass: 0
[2]; [22]
  Plant response rating, Surinam grass: 40
[3]
  Plant response rating, Velvetleaf: 0
[4]; [21]
  Plant response rating, Barnyardgrass: 0
[4]; [22]
  Plant response rating, Barnyardgrass: 90
[5]; [21]
  Plant response rating, Corn: 0
[5]; [22]
  Plant response rating, Corn: 0
[6]
  Plant response rating, Morningglory: 70
[7]; [21]
  Plant response rating, Lambsquarters: 100
[7]; [23]
  Plant response rating, Lambsquarters: 100
[7]; preemergence
  Plant response rating (0 to 100), Lambsquarters: 100
[7]; [24]
  Plant response rating, Lambsquarters: 100
[8]; [21]
  Plant response rating, Crabgrass: 100
[8]; [23]
  Plant response rating, Crabgrass: 100
[8]; preemergence
  Plant response rating (0 to 100), Crabgrass: 100
[8]; [24]
  Plant response rating, Crabgrass: 100
[9]; [21]
  Plant response rating, Surinam grass: 100
[9]; [23]
  Plant response rating, Surinam grass: 100
[9]; preemergence
  Plant response rating (0 to 100), Surinam grass: 100
[9]; [24]
  Plant response rating, Surinam grass: 100
[10]; Rate 62 g/ha, scale 0 to 100
  Plant response rating, Nightshade: 100
[10]; [21]
  Plant response rating, Nightshade: 100
[10]; [25]
  Plant response rating, Nightshade: 100
[11]; [21]
  Plant response rating, Velvetleaf: 60
[11]; [23]
  Plant response rating, Velvetleaf: 60
[11]; preemergence
  Plant response rating (0 to 100), Velvetleaf: 60
[11]; [24]
  Plant response rating, Velvetleaf: 60
[12]; [21]
  Plant response rating, Johnsongrass: 90
[12]; [23]
  Plant response rating, Johnsongrass: 0
[12]; preemergence
  Plant response rating (0 to 100), Johnsongrass: 100
[12]; [24]
  Plant response rating, Johnsongrass: 100
[13]; [21]
  Plant response rating, Corn: 80
[13]; [23]
  Plant response rating, Corn: 40
[13]; preemergence
  Plant response rating (0 to 100), Corn: 100
[13]; [24]
  Plant response rating, Corn: 90
[14]; [21]
  Plant response rating, Kochia: 100
[14]; [23]
  Plant response rating, Kochia: 100
[14]; preemergence
  Plant response rating (0 to 100), Kochia: 100
[14]; [24]
  Plant response rating, Kochia: 100
[15]; [23]
  Plant response rating, Morningglory: 70
[15]; [24]
  Plant response rating, Morningglory: 90
[16]; [23]
  Plant response rating, Cocklebur: 0
[16]; preemergence
  Plant response rating (0 to 100), Cocklebur: 0
[16]; [24]
  Plant response rating, Cocklebur: 0
[17]; [21]
  Plant response rating, Ragweed, Common: 100
[17]; [23]
  Plant response rating, Ragweed, Common: 100
[17]; preemergence
  Plant response rating (0 to 100), Ragweed, Common: 100
[17]; [24]
  Plant response rating, Ragweed, Common: 100
[18]; [21]
  Plant response rating, Soybean: 30
[18]; [23]
  Plant response rating, Soybean: 30
[18]; preemergence
  Plant response rating (0 to 100), Soybean: 60
[18]; [24]
  Plant response rating, Soybean: 40
[19]; [21]
  Plant response rating, Goosegrass: 100
[19]; [23]
  Plant response rating, Goosegrass: 100
[19]; preemergence
  Plant response rating (0 to 100), Goosegrass: 100
[19]; [24]
  Plant response rating, Goosegrass: 100
[20]; [21]
  Plant response rating, Cupgrass, Woolly: 100
[20]; [23]
  Plant response rating, Cupgrass, Woolly: 100
[20]; preemergence
  Plant response rating (0 to 100), Cupgrass, Woolly: 100
[20]; [24]
  Plant response rating, Cupgrass, Woolly: 100

## CCC(CC)c1ccn(C2OCN(c3cccc(OC(F)F)c3)C2=O)n1 (centres unmarked) [Compound 131]
[1]
  Plant response rating, Lambsquarters: 90
[2]; [21]
  Plant response rating, Surinam grass: 0
[2]; [22]
  Plant response rating, Surinam grass: 30
[3]
  Plant response rating, Velvetleaf: 0
[4]; [21]
  Plant response rating, Barnyardgrass: 80
[4]; [22]
  Plant response rating, Barnyardgrass: 100
[5]; [21]
  Plant response rating, Corn: 0
[5]; [22]
  Plant response rating, Corn: 20
[6]
  Plant response rating, Morningglory: 20
[7]; [21]
  Plant response rating, Lambsquarters: 100
[7]; [23]
  Plant response rating, Lambsquarters: 100
[7]; preemergence
  Plant response rating (0 to 100), Lambsquarters: 100
[7]; [24]
  Plant response rating, Lambsquarters: 100
[8]; [21]
  Plant response rating, Crabgrass: 100
[8]; [23]
  Plant response rating, Crabgrass: 100
[8]; preemergence
  Plant response rating (0 to 100), Crabgrass: 100
[8]; [24]
  Plant response rating, Crabgrass: 100
[9]; [21]
  Plant response rating, Surinam grass: 100
[9]; [23]
  Plant response rating, Surinam grass: 100
[9]; preemergence
  Plant response rating (0 to 100), Surinam grass: 100
[9]; [24]
  Plant response rating, Surinam grass: 100
[10]; Rate 62 g/ha, scale 0 to 100
  Plant response rating, Nightshade: 90
[10]; [21]
  Plant response rating, Nightshade: 100
[10]; [25]
  Plant response rating, Nightshade: 100
[11]; [21]
  Plant response rating, Velvetleaf: 30
[11]; [23]
  Plant response rating, Velvetleaf: 20
[11]; preemergence
  Plant response rating (0 to 100), Velvetleaf: 70
[11]; [24]
  Plant response rating, Velvetleaf: 70
[12]; [21]
  Plant response rating, Johnsongrass: 70
[12]; [23]
  Plant response rating, Johnsongrass: 30
[12]; preemergence
  Plant response rating (0 to 100), Johnsongrass: 100
[12]; [24]
  Plant response rating, Johnsongrass: 80
[13]; [21]
  Plant response rating, Corn: 100
[13]; [23]
  Plant response rating, Corn: 100
[13]; preemergence
  Plant response rating (0 to 100), Corn: 100
[13]; [24]
  Plant response rating, Corn: 100
[14]; [21]
  Plant response rating, Kochia: 100
[14]; [23]
  Plant response rating, Kochia: 100
[14]; preemergence
  Plant response rating (0 to 100), Kochia: 100
[14]; [24]
  Plant response rating, Kochia: 100
[15]; [21]
  Plant response rating, Morningglory: 60
[15]; [23]
  Plant response rating, Morningglory: 0
[15]; preemergence, Rate 500 g/ha, visual evaluation after 12 to 14 days
  Plant response rating (0 to 100), Morningglory: 90
[15]; [24]
  Plant response rating, Morningglory: 90
[16]; [21]
  Plant response rating, Cocklebur: 0
[16]; [23]
  Plant response rating, Cocklebur: 0
[16]; preemergence
  Plant response rating (0 to 100), Cocklebur: 30
[16]; [24]
  Plant response rating, Cocklebur: 30
[17]; [21]
  Plant response rating, Ragweed, Common: 0
[17]; [23]
  Plant response rating, Ragweed, Common: 0
[17]; preemergence
  Plant response rating (0 to 100), Ragweed, Common: 100
[17]; [24]
  Plant response rating, Ragweed, Common: 0
[18]; [21]
  Plant response rating, Soybean: 0
[18]; [23]
  Plant response rating, Soybean: 0
[18]; preemergence
  Plant response rating (0 to 100), Soybean: 40
[18]; [24]
  Plant response rating, Soybean: 40
[19]; [21]
  Plant response rating, Goosegrass: 100
[19]; [23]
  Plant response rating, Goosegrass: 100
[19]; preemergence
  Plant response rating (0 to 100), Goosegrass: 100
[19]; [24]
  Plant response rating, Goosegrass: 100
[20]; [21]
  Plant response rating, Cupgrass, Woolly: 100
[20]; [23]
  Plant response rating, Cupgrass, Woolly: 100
[20]; preemergence
  Plant response rating (0 to 100), Cupgrass, Woolly: 100
[20]; [24]
  Plant response rating, Cupgrass, Woolly: 100
